Data published in patent publication US4057636A, “Antihypertensive pyridylguanidine compounds” (Leo Pharmaceutical Products Ltd. A/S, priority 1974, dated 1977).

Assays:
blood pressure = conditions: J. Med. Chem. Vol. 11, p. 811 (1968); cited from earlier work
cats = experiment: Hypotensive action in anaesthetized cats (ΔBP, ΔHR); type: in vivo, cat
Procedure: (§1) Hypotensive action and various cardiovascular and autonomic responses in cats.
(§2) Cats of both sexes anaestetized with pentobarbital […]. were used. The left carotid artery was exposed and cannulated with polyethylene cannula connected through a Statham pressure transducer to a Grass Polygraph Recorder. […] The compound was administered dissolved in dilute HCl in a volume of 0.4 ml. […] Both procedures are known to produce pressor effects. […]

[1] = test system: normotensive anaesthetized rats; experiment: Hypotensive activity in normotensive anaesthetized rats; type: in vivo, rat (Sprague Dowley); conditions: for Δ mean blood pressure: at time of peak effect
Procedure: Male albino Sprague Dowley strain rats were anaesthetized with pentobarbital and fastened to rat boards in a supine position. The left carotid artery was exposed and cannulated with polyethylene cannula connected through a Statham pressure transducer to a Grass Polygraph Recorder. […] The compound was dissolved in dilute HCl. […] Table 1 summarizes the effects on mean blood pressure at the time of peak effect.

[2] = test system: vasopressor response to norepinephrine; experiment: Reduction of vasopressor response to norepinephrine (NE) in cats; type: in vivo, cat; conditions: 0.01 mg/kg i.v.; norepinephrine hydrochloride 1 meg/kg i.v.
Procedure: as §1, §2

[3] = test system: common carotid artery occlusion pressor response; experiment: Reduction of pressor response to common carotid artery occlusion (CO) in cats; type: in vivo, cat; conditions: 0.01 mg/kg i.v.; carotid artery occlusion 45 secs
Procedure: as §1, §2

[4] = test system: conscious normotensive dogs; experiment: Hypotensive activity in conscious normotensive dogs; type: in vivo, dog (mongrel); conditions: 0.1 mg/kg oral
Procedure: Hypotensive activity in conscious normotensive dogs
Mongrel dogs of both sexes, fasting 16 hours before the experiment were used. […] The compounds were orally administered in gelatine capsules.

nictitating membrane = experiment: Reduction of contraction of nictitating membrane, pre- and postganglionic stimulation, in cats; type: in vivo, cat; conditions: for Nict. Membr. post % reduction: postganglionic stimulation (3 V, 1 msec, 5 secs); for Nict. Membr. pre % reduction: preganglionic stimulation (3 V, 1 msec, 40 Hz, 5 secs)
Procedure: as §1, §2

[5] = test system: conscious spontaneously hypertensive rats; experiment: Antihypertensive activity in conscious spontaneously hypertensive rats; type: in vivo, rat (spontaneously hypertensive Okamoto strain)
Procedure: Male albino rats, spontaneously hypertensive Okamoto strain, fasting 16 hours before the experiments were used. The conscious animals were restrained in a plastic cage and a cuff was secured around the tail. The cuff was connected with an electronic blood pressure recorder. The systolic blood pressure and the heart rate were measured before and 2, 4, 6, and 24 hours after the administration of compounds. The compounds were suspended or dissolved in carboxymethylcellulose 0.5%. […] There are also included, for comparison, the results obtained under the same experimental conditions with some known antihypertensive drugs, and the approximate oral LD50 in mice are stated.

[6] = 0.01 mg/kg i.v., line with NE/CO
[7] = 0.01 mg/kg i.v., line with nictitating membrane
[8] = 0.05 mg/kg i.v., line with nictitating membrane

For CCC(C)(C)NC(=N)NC#N [Guancydine, N-cyano-N'-tert-pentylguanidine], the “hypotensive effect (literature)” value (blood pressure) is listed as “the most potent of the compounds of the above-mentioned literature”.

For CC(C)(C)NC(=NC#N)Nc1cccnc1 [P 1060, N-tert-Butyl-N"-cyano-N'-3-pyridylcuanidine], the ΔBP (cats; [6]) was 90 mm Hg, the ΔHR (cats; [6]) was 20 beats/min and the ΔBP (cats; [7]) was 90 mm Hg. It also gave a ΔHR (cats; [7]) of 35 beats/min, a ΔBP (cats; [8]) of 110 mm Hg and a ΔHR (cats; [8]) of 30 beats/min. The duration ([1]; 0.002 mg/kg i.v.) was 3 min, the “Δ mean blood pressure” value ([1]; 0.002 mg/kg i.v.) was -70 mm Hg and the duration ([1]; 0.005 mg/kg i.v.) was 12 min. The “Δ mean blood pressure” value ([1]; 0.005 mg/kg i.v.) was -70 mm Hg, the duration ([1]; 0.010 mg/kg i.v.) was over 45 min and the “Δ mean blood pressure” value ([1]; 0.010 mg/kg i.v.) was -85 mm Hg. For the same compound, the NE % reduction [2] was 50%, the CO % reduction [3] was 100% and the BP ([4]; Dog I, 1 hour) was 75 mm Hg. The HR ([4]; Dog I, 1 hour) was 152 beats/minute, the UV ([4]; Dog I, 1 hour) was 2.3 mL and the BP ([4]; Dog I, 2 hours) was 80 mm Hg. For the same compound, the HR ([4]; Dog I, 2 hours) was 180 beats/minute, the UV ([4]; Dog I, 2 hours) was 7.1 mL and the BP ([4]; Dog I, 3 hours) was 90 mm Hg. For the same compound, the HR ([4]; Dog I, 3 hours) was 152 beats/minute, the UV ([4]; Dog I, 3 hours) was 11 mL and the BP ([4]; Dog I, 4 hours) was 120 mm Hg. It also gave an HR ([4]; Dog I, 4 hours) of 140 beats/minute, a UV ([4]; Dog I, 4 hours) of 22 mL and a BP ([4]; Dog II, 1 hour) of 100 mm Hg. It also gave an HR ([4]; Dog II, 1 hour) of 112 beats/minute, a UV ([4]; Dog II, 1 hour) of 8 mL and a BP ([4]; Dog II, 2 hours) of 95 mm Hg. For the same compound, the HR ([4]; Dog II, 2 hours) was 128 beats/minute, the UV ([4]; Dog II, 2 hours) was 12.5 mL and the BP ([4]; Dog II, 3 hours) was 95 mm Hg. The HR ([4]; Dog II, 3 hours) was 104 beats/minute, the UV ([4]; Dog II, 3 hours) was 22.5 mL and the BP ([4]; Dog II, 4 hours) was 105 mm Hg. The HR ([4]; Dog II, 4 hours) was 100 beats/minute, the UV ([4]; Dog II, 4 hours) was 16 mL and the BP ([4]; Dog III, 1 hour) was 65 mm Hg. For the same compound, the HR ([4]; Dog III, 1 hour) was 172 beats/minute, the UV ([4]; Dog III, 1 hour) was 22 mL and the BP ([4]; Dog III, 2 hours) was 115 mm Hg. The HR ([4]; Dog III, 2 hours) was 104 beats/minute, the UV ([4]; Dog III, 2 hours) was 20 mL and the BP ([4]; Dog III, 3 hours) was 110 mm Hg. The HR ([4]; Dog III, 3 hours) was 92 beats/minute, the UV ([4]; Dog III, 3 hours) was 12 mL and the BP ([4]; Dog III, 4 hours) was 125 mm Hg. The HR ([4]; Dog III, 4 hours) was 88 beats/minute, the UV ([4]; Dog III, 4 hours) was 14 mL and the “Nict. Membr. post % reduction” value (nictitating membrane; 0.01 mg/kg i.v.) was 12%. For the same compound, the “Nict. Membr. pre % reduction” value (nictitating membrane; 0.01 mg/kg i.v.) was 20%, the “Nict. Membr. post % reduction” value (nictitating membrane; 0.05 mg/kg i.v.) was 21% and the “Nict. Membr. pre % reduction” value (nictitating membrane; 0.05 mg/kg i.v.) was 12%. It also gave a BP ([5]; 0.01 mg/kg, 2 hours) of 141 mm Hg, an HR ([5]; 0.01 mg/kg, 2 hours) of 419 beats/minute and a BP ([5]; 0.01 mg/kg, 4 hours) of 145 mm Hg. The HR ([5]; 0.01 mg/kg, 4 hours) was 423 beats/minute, the BP ([5]; 0.01 mg/kg, 6 hours) was 146 mm Hg and the HR ([5]; 0.01 mg/kg, 6 hours) was 428 beats/minute. For the same compound, the BP ([5]; 0.01 mg/kg, 24 hours) was 176 mm Hg, the HR ([5]; 0.01 mg/kg, 24 hours) was 402 beats/minute and the BP ([5]; 0.05 mg/kg, 2 hours) was 126 mm Hg. For the same compound, the HR ([5]; 0.05 mg/kg, 2 hours) was 422 beats/minute, the BP ([5]; 0.05 mg/kg, 4 hours) was 132 mm Hg and the HR ([5]; 0.05 mg/kg, 4 hours) was 420 beats/minute. It also gave a BP ([5]; 0.05 mg/kg, 6 hours) of 127 mm Hg, an HR ([5]; 0.05 mg/kg, 6 hours) of 410 beats/minute and a BP ([5]; 0.05 mg/kg, 24 hours) of 170 mm Hg. The HR ([5]; 0.05 mg/kg, 24 hours) was 386 beats/minute, the BP ([5]; 0.1 mg/kg, 2 hours) was 118 mm Hg and the HR ([5]; 0.1 mg/kg, 2 hours) was 420 beats/minute. It also gave a BP ([5]; 0.1 mg/kg, 4 hours) of under 100 mm Hg, an HR ([5]; 0.1 mg/kg, 4 hours) of 426 beats/minute and a BP ([5]; 0.1 mg/kg, 6 hours) of 114 mm Hg. The HR ([5]; 0.1 mg/kg, 6 hours) was 422 beats/minute, the BP ([5]; 0.1 mg/kg, 24 hours) was 170 mm Hg and the HR ([5]; 0.1 mg/kg, 24 hours) was 408 beats/minute. It also gave a BP ([5]; 0.5 mg/kg, 2 hours) of under 100 mm Hg, a BP ([5]; 0.5 mg/kg, 4 hours) of under 100 mm Hg and a BP ([5]; 0.5 mg/kg, 6 hours) of under 100 mm Hg. For the same compound, the BP ([5]; 0.5 mg/kg, 24 hours) was 153 mm Hg, the HR ([5]; 0.5 mg/kg, 24 hours) was 413 beats/minute and the BP ([5]; 1.0 mg/kg, 2 hours) was under 100 mm Hg. The BP ([5]; 1.0 mg/kg, 4 hours) was under 100 mm Hg, the BP ([5]; 1.0 mg/kg, 6 hours) was under 100 mm Hg and the BP ([5]; 1.0 mg/kg, 24 hours) was 126 mm Hg. The HR ([5]; 1.0 mg/kg, 24 hours) was 405 beats/minute.
